Results taken from PubChem BioAssay AID1963433 (Molecular Pharmacology Branch, DTP, NCI, 2024).
pIC50: −log10 of the molar value.

System: 772245-204-R-J1-PDC complex spheroid growth
Experiment: Anticancer human tumor 772245-204-R-J1-PDC patient-derived rhabdomyosarcoma cell line growth inhibition [Asc]
Conditions: for pIC50: curve of first compound; for viability, T/C: stronger effect = lower value
Protocol: Multicellular complex tumor spheroid response to apoptosis pathway targeting inhibitors Alrizomadlin, Pelcitoclax, and Dasminapant in combination with a variety of drugs and investigational agents in selected tumor cell lines
The MDM2 inhibitor alrizomadlin, the Bcl-2/Bcl-xL inhibitor pelcitoclax, and the IAPs inhibitor dasminapant were evaluated both individually and in combination with standard of care and investigational anticancer small molecules within a complex spheroid model of solid tumors. . Complex spheroids include a stromal component modeled by human endothelial cells (HUVEC) and fibroblasts modeled by human mesenchymal stem cells (MSCs). The concentration ranges selected for each drug and investigational agent were based upon clinically achievable concentrations if the clinical Cmax of the agent was known.
Compounds. The drugs and investigational agents: alrizomadlin (APG-115; NSC831270), pelcitoclax (APG-1252; NSC835773), dasminapant (APG-1387;NSC834197), TAK-243 (NSC785004), copanlisib (NSC809693), olaparib (NSC753686), talazoparib (NSC767125), cobimetinib (NSC 768068), eltanexor (KPT-8602, NSC 794443), abemaciclib (NSC 768073), sotorasib (NSC818433), adagrasib (NSC 831453), MRTX-1133 (NSC 836407), Iadademestat (ORY1001, NSC 806812), and RMC-4630 (NSC839698), were obtained from the NCI Developmental Therapeutics Program Chemical Repository. The FDA-approved anticancer drug set is available from the Developmental Therapeutics Program at https://dtp.cancer.gov/organization/dscb/obtaining/available plates.htm. […] The stock solutions were prepared in dimethyl sulfoxide (DMSO, Sigma-Aldrich, St. Louis, MO, cat. D2650) at 800-fold the tested concentration and stored at -70 degrees C prior to their use. All drugs and investigational agents were tested over a range starting from a high concentration at or near the clinical Cmax and decreasing in half-log increments. If the clinical Cmax for an agent had not been determined, the highest concentration tested was 10 microM.
The patient-derived cancer (PDC) cell lines include five colon adenocarcinomas: 186277-243-T-J2-PDC, 616215-338-R-J1-PDC, 439559-082-T-J2-PDC, 463943-066-T-J2-PDC, and 519858-162-T-J1-PDC; three pancreatic carcinomas: 323965-272-R-J2-PDC, 521955-158-R6-J3-PDC, and 521955-158-R2-J5-PDC; two uterine sarcomas: 327498-152-R-J2-PDC and 993429-296-R-J1-PDC; two rhabdomyosarcomas: 755483-174-R-J1-PDC and 772245-204-R-J1-PDC; two soft tissue sarcomas: 126254-015-R-J1-PDC and 494315-158-R-J1-PDC; two malignant fibrous histiocytomas: 317291-083-R-J1-PDC and 596521-263-R-J1-PDC; two breast carcinomas: 171881-019-R-J1-PDC and 885512-296-R-J2-PDC; and one ovarian carcinoma: 6556581-035-R-J-PDC were obtained from the NCI PDMR, (https://pdmr.cancer.gov). The established cell lines HSSY-2 synovial sarcoma (RRID:CVCL 8719), SYO-1 synovial sarcoma (RRID:CVCL_7146), MPNST malignant peripheral neural sheath tumor were obtained from the Sloan Kettering Institute. The following established cell lines were purchased from the American Type Culture Collection (ATCC, Manassas, VA), Sor the received from the NCI repository:, PANC-1 pancreatic carcinoma (CRL-1469, RRID:CVCL_0480), OVCAR-5 ovarian carcinoma (RRID:CVCL_1628), OVCAR-8 ovarian carcinoma (RRID:CVCL_1629), , MCF-7 breast carcinoma (CRL-12584, RRID:CVCL_0031), MDA-MB-231 breast carcinoma (CRL-12532, RRID:CVCL_0062), NCI-H1876 small cell lung carcinoma (CRL-5902, RRID:CVCL_1503), NCI-H510A small cell lung carcinoma (HTB-184, RRID:CVCL_1565), NCI-H1417 (CRL-5869, RRID:CVCL_1469), and NCI-H196 small cell lung carcinoma (CRL-5823, RRID:CVCL_1509). Dr. Peter Houghton (Greehey Children's Cancer Research Institute, University of Texas Health Science Center, San Antonio, TX) provided Rh-18 rhabdomyosarcoma (RRID:CVCL_1659). Pooled donor human umbilical vein endothelial cells (HUVEC, Lonza, cat. CC-2519) and human mesenchymal stem cells (hMSC, Lonza, cat. PT-2501) were purchased from Lonza (Walkersville, MD).
Cell Culture. […]

[1] = second compound 0.03 µM, first compound 0.0316 µM
[2] = second compound 0.03 µM, first compound 0.1 µM
[3] = second compound 0.0949 µM, first compound 0.0316 µM
[4] = second compound 0.0949 µM, first compound 0.1 µM
[5] = second compound 0.3 µM, first compound 0.0316 µM
[6] = second compound 0.3 µM, first compound 0.1 µM
[7] = second compound 0.949 µM, first compound 0.0316 µM
[8] = second compound 0.949 µM, first compound 0.1 µM
[9] = second compound 3 µM, first compound 0.0316 µM
[10] = second compound 3 µM, first compound 0.1 µM
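Further: compound exposure lasted seven days.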
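Wherever viability, T/C is given: 100% = DMSO vehicle control viability.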

In the case of `Cn1ncnc1[C@H]1c2n[nH]c(=O)c3cc(F)cc(c23)N[C@@H]1c1ccc(F)cc1` + CCN1C(C(=O)NC23CCC(C(=O)O)(CC2)CC3)C(c2cccc(Cl)c2F)C2(C(=O)Nc3cc(Cl)ccc32)C12CCCCC2, the pIC50 (second compound 0.03 µM) was under 7.00, the pIC50 (second compound 0.0949 µM) was under 7.00 and the pIC50 (second compound 0.3 µM) was under 7.00. The pIC50 (second compound 0.949 µM) was under 7.00, the pIC50 (second compound 3 µM) was under 7.00 and the viability, T/C (second compound 0.03 µM, first compound 0.000316 µM) was 118%. It also gave a viability, T/C (second compound 0.03 µM, first compound 0.001 µM) of 106%, a viability, T/C (second compound 0.03 µM, first compound 0.00316 µM) of 95% and a viability, T/C (second compound 0.03 µM, first compound 0.01 µM) of 85.2%. For the same compound, the viability, T/C [1] was 86.3%, the viability, T/C [2] was 81.9% and the viability, T/C (second compound 0.0949 µM, first compound 0.000316 µM) was 103%. For the same compound, the viability, T/C (second compound 0.0949 µM, first compound 0.001 µM) was 112%, the viability, T/C (second compound 0.0949 µM, first compound 0.00316 µM) was 110% and the viability, T/C (second compound 0.0949 µM, first compound 0.01 µM) was 88.2%. It also gave a viability, T/C [3] of 88.5%, a viability, T/C [4] of 91.9% and a viability, T/C (second compound 0.3 µM, first compound 0.000316 µM) of 116%. It also gave a viability, T/C (second compound 0.3 µM, first compound 0.001 µM) of 115%, a viability, T/C (second compound 0.3 µM, first compound 0.00316 µM) of 107% and a viability, T/C (second compound 0.3 µM, first compound 0.01 µM) of 95.2%. The viability, T/C [5] was 93%, the viability, T/C [6] was 89.6% and the viability, T/C (second compound 0.949 µM, first compound 0.000316 µM) was 94.2%. It also gave a viability, T/C (second compound 0.949 µM, first compound 0.001 µM) of 99.1%, a viability, T/C (second compound 0.949 µM, first compound 0.00316 µM) of 119% and a viability, T/C (second compound 0.949 µM, first compound 0.01 µM) of 92.3%. It also gave a viability, T/C [7] of 75.4%, a viability, T/C [8] of 76.6% and a viability, T/C (second compound 3 µM, first compound 0.000316 µM) of 82.7%. For the same compound, the viability, T/C (second compound 3 µM, first compound 0.001 µM) was 94%, the viability, T/C (second compound 3 µM, first compound 0.00316 µM) was 75.8% and the viability, T/C (second compound 3 µM, first compound 0.01 µM) was 65.9%. It also gave a viability, T/C [9] of 70.8% and a viability, T/C [10] of 62.5%.

With `O=C(c1cc(Cc2n[nH]c(=O)c3ccccc23)ccc1F)N1CCN(C(=O)C2CC2)CC1` + CCN1C(C(=O)NC23CCC(C(=O)O)(CC2)CC3)C(c2cccc(Cl)c2F)C2(C(=O)Nc3cc(Cl)ccc32)C12CCCCC2 the pIC50 (second compound 0.03 µM) was under 5.00, the pIC50 (second compound 0.0949 µM) was under 5.00 and the pIC50 (second compound 0.3 µM) was under 5.00. It also gave a pIC50 (second compound 0.949 µM) of under 5.00, a pIC50 (second compound 3 µM) of under 5.00 and a viability, T/C [1] of 102%. The viability, T/C [2] was 113%, the viability, T/C (second compound 0.03 µM, first compound 0.316 µM) was 93.7% and the viability, T/C (second compound 0.03 µM, first compound 1 µM) was 95.2%. For the same compound, the viability, T/C (second compound 0.03 µM, first compound 3.16 µM) was 87.3%, the viability, T/C (second compound 0.03 µM, first compound 10 µM) was 70.1% and the viability, T/C [3] was 108%. The viability, T/C [4] was 113%, the viability, T/C (second compound 0.0949 µM, first compound 0.316 µM) was 97.2% and the viability, T/C (second compound 0.0949 µM, first compound 1 µM) was 100%. The viability, T/C (second compound 0.0949 µM, first compound 3.16 µM) was 79.7%, the viability, T/C (second compound 0.0949 µM, first compound 10 µM) was 72% and the viability, T/C [5] was 121%. It also gave a viability, T/C [6] of 115%, a viability, T/C (second compound 0.3 µM, first compound 0.316 µM) of 102% and a viability, T/C (second compound 0.3 µM, first compound 1 µM) of 93.1%. It also gave a viability, T/C (second compound 0.3 µM, first compound 3.16 µM) of 92%, a viability, T/C (second compound 0.3 µM, first compound 10 µM) of 69.2% and a viability, T/C [7] of 101%. The viability, T/C [8] was 92.9%, the viability, T/C (second compound 0.949 µM, first compound 0.316 µM) was 99.6% and the viability, T/C (second compound 0.949 µM, first compound 1 µM) was 88.3%. It also gave a viability, T/C (second compound 0.949 µM, first compound 3.16 µM) of 73.3%, a viability, T/C (second compound 0.949 µM, first compound 10 µM) of 63.8% and a viability, T/C [9] of 77.2%. It also gave a viability, T/C [10] of 80.4%, a viability, T/C (second compound 3 µM, first compound 0.316 µM) of 84.1% and a viability, T/C (second compound 3 µM, first compound 1 µM) of 74.7%. For the same compound, the viability, T/C (second compound 3 µM, first compound 3.16 µM) was 55.8% and the viability, T/C (second compound 3 µM, first compound 10 µM) was 62.5%.
